One may read the ΔTm as the change in melting temperature against a reference sample.

The values that follow come from ChEMBL document CHEMBL4725438, “Chiral Analogues of PFI-1 as BET Inhibitors and Their Functional Role in Myeloid Malignancies” (ACS Med Chem Lett, 2020).

Molecules are shown by their SMILES. Calls of active or inactive are those of the source. No cut-off for these calls is given here.

The target of series [1] is Bromodomain-containing protein 2 (Homo sapiens) (UniProt P25440). The experiment in a line: Binding affinity to N-terminal His-tagged human recombinant BRD2 bromodomain 1 (71 to 194 residues) expressed in Escherichia coli assessed as change in melting temperature at 10 uM by BromoMELT assay.
The test system of series [2] is HEL. The experiment in a line: Inhibition of BET in human HEL cells harboring JAK2 V617F mutant assessed as increase in HEXIM1 protein expression at 5 uM measured after 24 hrs by Western blot analysis. The class given is cell-based. For orientation: In western blotting, separated proteins are transferred to a membrane and probed.
For series [3], the system named is MOLM-14. Nature of the series: Inhibition of BET in human MOLM-14 cells harboring FLT3-ITD mutant assessed as increase in HEXIM1 protein expression at 5 uM measured after 24 hrs by Western blot analysis. The class given is cell-based.
In series [4] the test system is BMMC. Nature of the series: Anticlonogenic activity against AML patient derived BMMC harboring FLT3-ITD/FLT3-TKD mutant assessed as reduction in colony formation at 1 to 5 uM measured after 7 to 11 days. It counts as functional, tissue-based. The settings on record: Homo sapiens, dose microM 1-5, time day 7-11.
The subject of series [5] is K562. The experiment in a line: Inhibition of BET in human K562 cells harboring BCR-ABL assessed as increase in HEXIM1 protein expression at 5 uM measured after 24 to 48 hrs by Western blot analysis. It counts as cell-based. The settings on record: time hrs 24-48.
Series [6] in a line: Cytotoxicity against human PBMC assessed as reduction in colony formation at 1 to 5 uM measured after 7 to 11 days. The class given is tissue-based. The settings on record: dose 1-5 µM, time 7-11 day.
The nature of series [7]: Cytotoxicity against human CD34+ cells assessed as reduction in colony formation at 1 to 5 uM measured after 7 to 11 days. Particulars: cd34-positive (myeloid/lymphoid) cell, dose 1-5 µM, time 7-11 day. It counts as cell-based.
Series [8] has as its target Bromodomain-containing protein 4 (Homo sapiens) (UniProt O60885). Nature of the series: Inhibition of BRD4 in human HEL cells harboring JAK2 V617F mutant assessed as metabolic activity at 1 uM measured after 72 hrs by MTT assay relative to control. The class given is cell-based. Details: Activity: scale not given: the % may be the effect or the level left. A general note: Formazan colour is commonly taken as a measure of viable cells.

Series [9] deals with HEL. The experiment in a line: Induction of apoptosis in human HEL cells harboring JAK2 V617F mutant assessed as cleavage of PARP-1 at 5 uM measured after 24 to 48 hrs by Western blot analysis. The settings on record: time hrs 24-48. It counts as functional, cell-based.
In series [10] the test system is MOLM-14. Nature of the series: Induction of apoptosis in human MOLM-14 cells harboring FLT3-ITD mutant assessed as cleavage of PARP-1 at 5 uM measured after 24 to 48 hrs by Western blot analysis. It counts as functional, cell-based. Particulars: time hrs 24-48.
In series [11] the test system is MOLM-14. The experiment in a line: Inhibition of BET in human MOLM-14 cells harboring FLT3-ITD mutant assessed as decrease in AURKB protein expression at 5 uM measured after 48 hrs by Western blot analysis. The class given is cell-based.
Series [12] relates to K562. The experiment in a line: Inhibition of BET in human K562 cells harboring BCR-ABL assessed as decrease in AURKB protein expression at 5 uM measured after 48 hrs by Western blot analysis. It counts as cell-based.
The subject of series [13] is HEL. Nature of the series: Inhibition of BET in human HEL cells harboring JAK2 V617F mutant assessed as increase in HEXIM1 protein expression at 5 uM measured after 24 to 48 hrs by Western blot analysis. It counts as cell-based. The settings on record: time hrs 24-48.
Series [14] has as its system MOLM-14. Nature of the series: Inhibition of BET in human MOLM-14 cells harboring FLT3-ITD mutant assessed as increase in HEXIM1 protein expression at 5 uM measured after 24 to 48 hrs by Western blot analysis. The class given is cell-based. Particulars: time hrs 24-48.
The target of series [15] is Bromodomain-containing protein 4 (Homo sapiens) (UniProt O60885). The experiment in a line: Inhibition of BRD4 in human MOLM-14 cells harboring FLT3-ITD mutant assessed as decrease in metabolic activity at 10 uM measured after 72 hrs by MTT assay. The class given is cell-based.
The target is the same in series [16]. Nature of the series: Inhibition of BRD4 in human HEL cells harboring JAK2 V617F mutant assessed as decrease in metabolic activity at 10 uM measured after 72 hrs by MTT assay. The class given is cell-based.
Series [17] has the same target. The experiment in a line: Inhibition of BRD4 in human K562 cells harboring BCR-ABL assessed as decrease in metabolic activity at 10 uM measured after 72 hrs by MTT assay. The class given is cell-based.
Series [18] shares this target. Nature of the series: Inhibition of BRD4 in human MOLM-14 cells harboring FLT3-ITD mutant assessed as metabolic activity at 1 uM measured after 72 hrs by MTT assay relative to control. It counts as cell-based. Details: scale not given: the % may be the effect or the level left.
For series [19] the target is unchanged. The experiment in a line: Binding affinity to N-terminal His-tagged human recombinant BRD4 bromodomain 1 (44-170 residues) expressed in Escherichia coli assessed as change in melting temperature at 10 uM by BromoMELT assay.
For series [20] the target is unchanged. Nature of the series: Inhibition of BRD4 in human HEL cells harboring JAK2 V617F mutant assessed as reduction in cell proliferation at 1 to 5 uM after 72 hrs by tryphan blue staining based assay. The settings on record: dose microM 1-5, time 72.0 hrs.
The target is the same in series [21]. The experiment in a line: Inhibition of BRD4 in human MOLM-14 cells harboring FLT3-ITD mutant assessed as reduction in cell proliferation at 1 to 5 uM after 72 hrs by tryphan blue staining based assay. The settings on record: dose microM 1-5, time 72.0 hrs.
For series [22] the target is unchanged. The experiment in a line: Inhibition of BRD4 in human K562 cells harboring BCR-ABL assessed as reduction in cell proliferation at 1 to 5 uM after 72 hrs by tryphan blue staining based assay. Particulars: dose microM 1-5, time 72.0 hrs.
The target is the same in series [23]. The experiment in a line: Inhibition of BRD4 in human HEL cells harboring JAK2 V617F mutant assessed as cell cycle arrest by measuring increase in cell population at G0/G1 phase at 1 to 5 uM measured after 24 hrs by propidium iodide staining based FACS analysis. The settings on record: dose microM 1-5, time 24.0 hrs. On the technique in general: In flow cytometry, cells or beads pass a laser one at a time.

For series [24] the target is unchanged. The experiment in a line: Inhibition of BRD4 in human HEL cells harboring JAK2 V617F mutant assessed as cell cycle arrest by measuring decrease in cell population at S phase at 1 to 5 uM measured after 24 hrs by propidium iodide staining based FACS analysis. Particulars: dose microM 1-5, time 24.0 hrs.
The target is the same in series [25]. The experiment in a line: Inhibition of BRD4 in human HEL cells harboring JAK2 V617F mutant assessed as cell cycle arrest by measuring increase in cell population at sub-G1 phase at 1 to 5 uM measured after 24 hrs by propidium iodide staining based FACS analysis. The settings on record: dose microM 1-5, time 24.0 hrs.
For series [26] the target is unchanged. Nature of the series: Inhibition of BRD4 in human MOLM-14 cells harboring FLT3-ITD mutant assessed as cell cycle arrest by measuring increase in cell population at G0/G1 phase at 1 to 5 uM measured after 24 hrs by propidium iodide staining based FACS analysis. The settings on record: dose microM 1-5, time 24.0 hrs.
For series [27] the target is unchanged. The experiment in a line: Inhibition of BRD4 in human MOLM-14 cells harboring FLT3-ITD mutant assessed as cell cycle arrest by measuring decrease in cell population at S phase at 1 to 5 uM measured after 24 hrs by propidium iodide staining based FACS analysis. Particulars: dose microM 1-5, time 24.0 hrs.
For series [28] the target is unchanged. The experiment in a line: Inhibition of BRD4 in human MOLM-14 cells harboring FLT3-ITD mutant assessed as cell cycle arrest by measuring increase in cell population at sub-G1 phase at 1 to 5 uM measured after 24 hrs by propidium iodide staining based FACS analysis. Particulars: dose microM 1-5, time 24.0 hrs.
For series [29] the target is unchanged. Nature of the series: Inhibition of BRD4 in human HEL cells harboring JAK2 V617F mutant assessed as cell viability at 5 uM measured after 72 hrs by tryphan blue staining based assay relative to control.
The target is the same in series [30]. The experiment in a line: Inhibition of BRD4 in human MOLM-14 cells harboring FLT3-ITD mutant assessed as cell viability at 5 uM measured after 72 hrs by tryphan blue staining based assay relative to control.
The subject of series [31] is K562. The experiment in a line: Induction of apoptosis in human K562 cells harboring BCR-ABL assessed as cleavage of PARP-1 at 5 uM measured after 24 to 48 hrs by Western blot analysis. It counts as functional, cell-based. The settings on record: time hrs 24-48.
Series [32] concerns the target Bromodomain-containing protein 4 (Homo sapiens) (UniProt O60885). The experiment in a line: Inhibition of BRD4 in human K562 cells harboring BCR-ABL assessed as decrease in metabolic activity at 0.01 to 20 uM measured after 72 hrs by MTT assay. Particulars: dose microM 0.01-20, time 72.0 hrs. The class given is cell-based.
The subject of series [33] is HEL. Nature of the series: Inhibition of BET in human HEL cells harboring JAK2 V617F mutant assessed as decrease in AURKB protein expression at 5 uM measured after 24 to 48 hrs by Western blot analysis. The class given is cell-based. Particulars: time hrs 24-48.
Series [34] relates to MOLM-14. The experiment in a line: Inhibition of BET in human MOLM-14 cells harboring FLT3-ITD mutant assessed as decrease in AURKB protein expression at 5 uM measured after 24 to 48 hrs by Western blot analysis. Particulars: time hrs 24-48. It counts as cell-based.
In series [35] the test system is HEL. The experiment in a line: Inhibition of BET in human HEL cells harboring JAK2 V617F mutant assessed as increase in HEXIM1 protein expression at 5 uM preincubated in medium for 24 to 48 hrs followed by cell addition and measured after 24 hrs by Western blot analysis. The class given is cell-based. Particulars: time 96.0 hrs.
For series [36], the system named is MOLM-14. The experiment in a line: Inhibition of BET in human MOLM-14 cells harboring FLT3-ITD mutant assessed as increase in HEXIM1 protein expression at 5 uM preincubated in medium for 24 to 48 hrs followed by cell addition and measured after 24 hrs by Western blot analysis. The class given is cell-based. Particulars: time 96.0 hrs.
The subject of series [37] is K562. The experiment in a line: Inhibition of BET in human K562 cells harboring BCR-ABL assessed as increase in HEXIM1 protein expression at 5 uM preincubated in medium for 24 to 48 hrs followed by cell addition and measured after 24 hrs by Western blot analysis. The class given is cell-based. The settings on record: time 96.0 hrs.

Sequence of Bromodomain-containing protein 2 (Homo sapiens) (P25440 whole entry, looked up, the tested form may be a part): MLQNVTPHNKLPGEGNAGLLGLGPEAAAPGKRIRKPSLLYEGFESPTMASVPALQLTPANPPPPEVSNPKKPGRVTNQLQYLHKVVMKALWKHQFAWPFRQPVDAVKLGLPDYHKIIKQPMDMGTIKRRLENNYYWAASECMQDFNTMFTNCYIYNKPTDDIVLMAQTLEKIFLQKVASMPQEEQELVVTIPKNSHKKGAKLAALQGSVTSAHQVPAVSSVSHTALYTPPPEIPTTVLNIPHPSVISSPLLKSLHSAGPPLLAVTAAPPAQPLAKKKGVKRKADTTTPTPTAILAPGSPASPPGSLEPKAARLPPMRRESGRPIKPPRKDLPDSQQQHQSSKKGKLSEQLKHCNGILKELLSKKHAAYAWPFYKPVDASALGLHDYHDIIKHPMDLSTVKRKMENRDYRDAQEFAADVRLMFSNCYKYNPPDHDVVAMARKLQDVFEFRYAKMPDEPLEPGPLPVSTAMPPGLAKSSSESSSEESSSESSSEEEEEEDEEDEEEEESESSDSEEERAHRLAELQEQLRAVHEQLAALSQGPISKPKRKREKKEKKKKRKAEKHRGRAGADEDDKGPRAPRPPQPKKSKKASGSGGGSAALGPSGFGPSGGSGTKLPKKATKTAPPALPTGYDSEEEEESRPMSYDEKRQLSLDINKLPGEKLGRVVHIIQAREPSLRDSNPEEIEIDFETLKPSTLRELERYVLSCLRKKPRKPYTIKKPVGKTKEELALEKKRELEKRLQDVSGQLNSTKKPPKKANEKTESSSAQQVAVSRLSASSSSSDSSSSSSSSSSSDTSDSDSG

As to `COc1ccccc1S(=O)(=O)Nc1ccc2c(c1)CN(C)C(=O)N2`, the ΔTm in series [1] amounted to 3.5 °C. The inhibition entry in series [2], in [3] and in series [5] was “Active” in each case. In addition, in series [4], the outcome was Active. Besides, the Activity entry in series [6] and in [7] was “Toxic” throughout.
On to `CN1Cc2cc(N=[S@](C)(=O)c3ccccc3)ccc2NC1=O`, for which the inhibition result in series [8], in [13] and in [14] was “inactive” in each case. Further, the result in [9] and in [10] was inactive. Also, the inhibition entry in [11] and in series [12] was “Active” each time.
Regarding `CN=S(C)(=Nc1ccc2c(c1)CN(C)C(=O)N2)c1ccccc1` (stereo unspecified), the inhibition result in series [15] and in series [16] was “Active” throughout. Further, the inhibition result in series [17] is “inactive”.
As for `CN1Cc2cc(N=S(C)(=Nc3ccccc3)c3ccccc3)ccc2NC1=O` (stereo unspecified), the inhibition result in series [15] and in series [16] was “Active” each time. Moreover, the inhibition entry in series [17] is “inactive”.
As for `CN1Cc2cc(N=S(C)(=N)c3ccccc3)ccc2NC1=O` (stereo unspecified), the inhibition result in series [15] and in [16] was “Active” in each case. In [17], the inhibition entry is “inactive”.
As to `COc1ccccc1S(C)(=O)=Nc1ccc2c(c1)CN(C)C(=O)N2` (stereo unspecified), the inhibition entry in series [15] and in series [16] was “Active” each time. In addition, the inhibition result in [17] is “inactive”.
On to `CN1Cc2cc(N=[S@@](C)(=O)c3ccccc3)ccc2NC1=O`, for which the Activity in series [8] was 37%; in series [18], 55%; in series [29] it was 55%; in series [30], 57%; in series [6] it was “Toxic”; in [7] it was “Toxic”. For the same compound, the thermal shift (ΔTm) was determined as 3.5 °C in [1] and 5 °C in [19]. In addition, the inhibition entry in series [20], in [21], in series [22], in [23], in series [24] and in series [25] was “Active” throughout. Also, the inhibition result in series [26], in [27], in series [28], in [2], in series [3] and in series [33] was “Active” throughout. Also, the inhibition result in series [34], in series [5], in series [35], in series [36] and in [37] was “Active” throughout. Further, the outcome in series [9], in series [10] and in series [4] was Active. Further, the result in series [31] was inactive. Also, the inhibition entry in [32] was “inactive”.
